ChEMBL document CHEMBL1143414, “Association of saquinavir plasma concentrations with side effects but not with antiretroviral outcome in patients infected with protease inhibitor-susceptible human immunodeficiency virus type 1” (Antimicrob Agents Chemother, 2007)

Tests used:
Details in all cases: in vivo
[1] = Apparent elimination half life in HIV1 infected human at 1000 mg, po administered twice daily; format: ADME, organism-based
[2] = Cmax in HIV1 infected human at 1000 mg, po administered twice daily; format: ADME, organism-based; parameters: dose 1000 mg, route oral
[3] = Tmax in HIV1 infected human at 1000 mg, po administered twice daily; format: ADME, organism-based
Homo sapiens [4] = assay: Tlag in HIV1 infected human at 1000 mg, po administered twice daily; format: ADME, organism-based
Homo sapiens [5] = assay: AUC in HIV1 infected human at 1000 mg, po administered twice daily; format: ADME, organism-based, Plasma
Homo sapiens [6] = assay: Tlag in HIV1 infected human at 100 mg, po administered twice daily; format: ADME, organism-based
[7] = Cmax in HIV1 infected human at 100 mg, po administered twice daily; format: ADME, organism-based; parameters: dose 100 mg, route oral
[8] = Apparent elimination half life in HIV1 infected human at 100 mg, po administered twice daily; format: ADME, organism-based
Homo sapiens [9] = assay: CL/F in HIV1 infected human at 100 mg, po administered twice daily; format: ADME, organism-based
Homo sapiens [10] = assay: AUC in HIV1 infected human at 100 mg, po administered twice daily; format: ADME, organism-based, Plasma
[11] = Tmax in HIV1 infected human at 100 mg, po administered twice daily; format: ADME, organism-based

half-life [1] [h] | Cmax [2] [ng/mL] | Tmax [3] [h] | Tlag (Homo sapiens [4]) [h] | AUC (Homo sapiens [5]) [ng·h/mL] | Tlag (Homo sapiens [6]) [h] | Cmax [7] [ng/mL] | half-life [8] [h] | CL/F (Homo sapiens [9]) [L/h] | AUC (Homo sapiens [10]) [ng·h/mL] | Tmax [11] [h] | Compound
3.7 | 2620 | 4 | 0 | 17546.5 |  |  |  |  |  |  | CC(C)(C)NC(=O)[C@@H]1C[C@@H]2CCCC[C@@H]2CN1C[C@@H](O)[C@H](Cc1ccccc1)NC(=O)[C@H](CC(N)=O)NC(=O)c1ccc2ccccc2n1 [SAQUINAVIR]
 |  |  |  |  | 0.25 | 880 | 4.3 | 15.6 | 6399.9 | 4 | CC(C)c1nc(CN(C)C(=O)N[C@H](C(=O)N[C@@H](Cc2ccccc2)C[C@H](O)[C@H](Cc2ccccc2)NC(=O)OCc2cncs2)C(C)C)cs1 [RITONAVIR]
